Measured values reported in patent US12280037B2, “Method and pharmaceutical composition for treating or preventing trichomoniasis and uses thereof” (EVOFEM BIOSCIENCES, INC., priority 2020, dated 2025).
Values after ≈ are worked out from the molar mass of the structure shown. Values joined by “and” are separate entries in the source; they are usually repeats but may differ in a detail not shown here. Equal entries are not always repeated.

Tests used:
[1] = Thorough QT (TQT) study: QTc, cardiac conduction and adverse events; conditions: Moxifloxacin 400 mg oral (control)
Description: A TQT study was also conducted. The TQT study was a double-blind, randomized, placebo-controlled, 4-period, single-dose, crossover design in 52 healthy male and female subjects.

[2] = men, published studies; cited from earlier work
[3] = Thorough QT (TQT) study: secnidazole pharmacokinetics by gender; assay type: in vivo, human
Description: A TQT study was also conducted. […] A total of 50 subjects (29 males and 21 females) were included in the PK population. Noncompartmental PK parameters for these subjects are summarized by gender in Table 15 below.

[4] = Phase I study of SYM-1219 4 grams or 6 grams: secnidazole plasma concentrations; assay type: in vivo, human
Description: Additionally, a Phase I, randomized, placebo-controlled, single-blind, two-group study, which assessed the safety, tolerability, and PK of single oral doses of SYM-1219 granules containing either 4 grams or 6 grams of secnidazole administered in approximately 8 ounces of applesauce to 16 healthy male and female subjects, was conducted to determine the supratherapeutic dose for a potential Thorough QT (“TQT”) study. Subjects were randomized 3:1, such that a total of 12 subjects received secnidazole and 4 subjects received placebo. 3 male and 3 female subjects were treated at each secnidazole dose level (i.e., 4 grams or 6 grams). Blood samples for PK assessments were collected at the following timepoints: 30 minutes prior to dosing and 3 hours, 6 hours, 8 hours and 24 hours post dose. Plasma concentrations were summarized by timepoint using descriptive statistics; noncompartmental PK parameters were not calculated.
Eligible subject were admitted to the clinical site on Day −1 and were discharged following a safety evaluation on Day 2; the in-house period was approximately 2 days. Randomization occurred after the assessments of Day −1 determined that subjects remained eligible for the study. All subject were asked to return on Day 7+/2 days for a final study visit. The maximum study duration was approximately 4 weeks to 5 weeks (including the study screening period).
Group A received a single oral dose of SYM-1219 microgranules, containing 4 grams of secnidazole (N=6) (2 packets of SYM-1219 microgranules, 2 grams of secnidazole/packet), or a placebo (N=2) (2 packets of placebo) in approximately 8 oz. of applesauce. […]
Blood samples for PK analysis were collected: 30 minutes prior to dosing and 3 hours, 6 hours, 8 hours and 24 hours postdose. […] Plasma secnidazole concentrations were determined by Celerion, Inc., using validated analytical procedures. […]

[5] = tested on: clinical isolates of T. vaginalis; test: Susceptibility testing, minimal lethal concentration (MLC), aerobic; assay type: cell-based, Trichomonas vaginalis; conditions: for MLC, mean (±SD) among all isolates / MLC, median: aerobic, 46-50 h
Description: Susceptibility testing was conducted with one hundred (100) clinical isolates of T. vaginalis.
Archived, de-identified, clinical isolates of T. vaginalis that were banked in liquid nitrogen were used for this study. The samples had been collected between July 2015 and June 2017, in accordance with institutional review board guidelines, and all patients had consented to the storage and use of their samples for subsequent testing. […] In brief, trichomonads were grown in Diamond's medium 1025 (containing trypticase soy broth, yeast extract, maltose, and calf serum) adjusted to pH 5.9 and supplemented with streptomycin at 1 g/liter and penicillin G at 100 U/ml. A hemocytometer was used to count the trichomonad population and to adjust it to a concentration of 66,666 cells/ml. Isolates were tested in microtiter plates under aerobic conditions. […] Plates were then incubated at 37° C. for 46 hours to 50 hours and read with a Zeiss Axiovert inverted microscope. The concentration of drug in the microplate wells in which no motile trichomonads were observed was reported as the MLC. […] Low-level resistance was defined as an aerobic MLC of 50 μg/ml to 100 μg/ml, moderate-level resistance as an aerobic MLC of 200 μg/ml, and high-level resistance as an aerobic MLC of >400 μg/ml. The MLCs for metronidazole and secnidazole were analyzed using the Wilcoxon signed-rank test to evaluate the differences between treatments.
Each well of a 96-well plate was filled with 150 μL of T. vaginalis suspension in Diamond's growth media (10^4 trichomonads). […] Cultures were visually assessed for survival, defined by observation of motility, through a 100× inverted microscope.

[6] = Phase 3 study: treatment-emergent adverse events (safety population); assay type: in vivo, human; conditions: 2 grams, safety population (N = 74), TEAEs in primary phase
Description: Safety analyses, including the evaluation of adverse events, physical examinations, pelvic examinations, collection of vital signs (blood pressure, temperature, and pulse), and clinical laboratory assessments (serum chemistry, hematology, and urinalysis) was conducted at all study visits. Adverse event information was also collected on the phone call between study V2 and V3.

[7] = 100 clinical T. vaginalis isolates
[8] = 100 clinical T. vaginalis isolates, listed as secnidazole

COc1c(N2C[C@@H]3CCCN[C@@H]3C2)c(F)cc2c(=O)c(C(=O)O)cn(C3CC3)c12 [Moxifloxacin]
Overall incidence rate of TEAEs [1]: 4.3%

Cc1ncc([N+](=O)[O-])n1CC(C)O (stereo not drawn) [Secnidazole, 1-(2-hydroxypropyl)-2-methyl-5-nitromidazole]
Mean dose-normalized (to 2 grams) concentrations at 96 hours [2]: approximately 2 μg/mL
Plasma concentrations and exposures in males versus females ([3]; 2 and 6 grams): slightly lower
Secnidazole exposure over the 24-hour sampling period, fold lower in male vs female subjects ([3]; Phase I study concentration-by-time data or TQT study mean PK parameters): approximately 1.5 fold
Variability in plasma concentrations ([3]; across the sampling times, 2 and 6 grams): 21% to 57%
Dose proportionality of plasma concentrations ([3]; from 2 grams to 6 grams of secnidazole): essentially dose-proportional
Time postdose up to which concentrations greater than the median MLC are maintained ([3]; men): at least 96 hours
Plasma concentrations and exposures in males versus females ([4]; 4 and 6 grams): slightly lower
Variability in plasma concentrations ([4]; across the limited sampling times, 4 and 6 grams): 4% to 29%
Dose proportionality of plasma concentrations ([4]; from 4 grams to 6 grams of secnidazole): essentially dose-proportional
In vitro efficacy in comparison with metronidazole [5, 7]: superior efficacy in vitro
Isolates demonstrating moderate- or high-level resistance [5, 7]: none of the isolates
Isolates with a lower MLC for secnidazole than for metronidazole [5, 7]: 96%
Prevalence of low-level resistance (aerobic MLC 50 μg/ml to 100 μg/ml) [5, 7]: Four
MLC, mean (±SD) among all isolates [5, 7]: Mean: 5.9 μg/mL
MLC, median [5, 7]: Median: 1.6 μg/mL
MLC, mean (±SD) among all isolates [5, 8]: 5.9 ± 13.2 µg/mL and 5.9 µg/mL
MLC, median [5, 8]: 1.6 µg/mL (≈ 8.64 µM)
Response of control isolates with established high-level resistance to metronidazole ([5]; control isolates): responded to significantly lower levels of secnidazole
MLC in the one isolate with a higher MLC for secnidazole than for metronidazole ([5]; single clinical isolate): 3.1 µg/mL
Abdominal pain: Events n [6]: 1
Abdominal pain: Patients n (%) [6]: 1 (1.4%)
Any Adverse Event, Overall: Events n [6]: 13
Any Adverse Event, Overall: Patients n (%) [6]: 11 (14.9%)
Back pain: Events n [6]: 0
Back pain: Patients n (%) [6]: 0%
Diarrhea: Events n [6]: 1
Diarrhea: Patients n (%) [6]: 1 (1.4%)
Dysmenorrhoea: Events n [6]: 0
Dysmenorrhoea: Patients n (%) [6]: 0%
Gastrointestinal disorders, Overall: Events n [6]: 5
Gastrointestinal disorders, Overall: Patients n (%) [6]: 4 (5.4%)
General disorders and administration site conditions, Overall: Events n [6]: 0
General disorders and administration site conditions, Overall: Patients n (%) [6]: 0%
Headache: Events n [6]: 1
Headache: Patients n (%) [6]: 1 (1.4%)
Infections and infestations, Overall: Events n [6]: 3
Infections and infestations, Overall: Patients n (%) [6]: 3 (4.1%)
Menstruation irregular: Events n [6]: 0
Menstruation irregular: Patients n (%) [6]: 0%
Musculoskeletal and connective tissue disorders, Overall: Events n [6]: 1
Musculoskeletal and connective tissue disorders, Overall: Patients n (%) [6]: 1 (1.4%)
Myalgia: Events n [6]: 1
Myalgia: Patients n (%) [6]: 1 (1.4%)
Nausea: Events n [6]: 2
Nausea: Patients n (%) [6]: 2 (2.7%)
Nervous system disorders, Overall: Events n [6]: 1
Nervous system disorders, Overall: Patients n (%) [6]: 1 (1.4%)
Productive cough: Events n [6]: 1
Productive cough: Patients n (%) [6]: 1 (1.4%)
Pruritus: Events n [6]: 0
Pruritus: Patients n (%) [6]: 0%
Reproductive system and breast disorders, Overall: Events n [6]: 1
Reproductive system and breast disorders, Overall: Patients n (%) [6]: 1 (1.4%)
Respiratory, thoracic and mediastinal disorders, Overall: Events n [6]: 2
Respiratory, thoracic and mediastinal disorders, Overall: Patients n (%) [6]: 2 (2.7%)
Skin and subcutaneous tissue disorders, Overall: Events n [6]: 0
Skin and subcutaneous tissue disorders, Overall: Patients n (%) [6]: 0%
Thirst: Events n [6]: 0
Thirst: Patients n (%) [6]: 0%
Trichomoniasis (adverse event): Events n [6]: 0
Trichomoniasis (adverse event): Patients n (%) [6]: 0%
Upper-airway cough syndrome: Events n [6]: 1
Upper-airway cough syndrome: Patients n (%) [6]: 1 (1.4%)
Vomiting: Events n [6]: 1
Vomiting: Patients n (%) [6]: 1 (1.4%)
Vulvovaginal candidiasis: Events n [6]: 2
Vulvovaginal candidiasis: Patients n (%) [6]: 2 (2.7%)
Vulvovaginal mycotic infection: Events n [6]: 1
Vulvovaginal mycotic infection: Patients n (%) [6]: 1 (1.4%)
Vulvovaginal pruritus: Events n [6]: 1
Vulvovaginal pruritus: Patients n (%) [6]: 1 (1.4%)
